Some results are limits rather than exact numbers.

These results are taken from patent US8691865B2 (AbbVie Inc., priority 2008, dated 2014).

One assay deals with human Cav2.2 (Homo sapiens, UniProt Q00975). The assay can be described thus: Assessment of calcium channel activity using FLIPR (Ca2+ influx in IMR32 cells).
human Cav2.2, sequence (Q00975 whole entry): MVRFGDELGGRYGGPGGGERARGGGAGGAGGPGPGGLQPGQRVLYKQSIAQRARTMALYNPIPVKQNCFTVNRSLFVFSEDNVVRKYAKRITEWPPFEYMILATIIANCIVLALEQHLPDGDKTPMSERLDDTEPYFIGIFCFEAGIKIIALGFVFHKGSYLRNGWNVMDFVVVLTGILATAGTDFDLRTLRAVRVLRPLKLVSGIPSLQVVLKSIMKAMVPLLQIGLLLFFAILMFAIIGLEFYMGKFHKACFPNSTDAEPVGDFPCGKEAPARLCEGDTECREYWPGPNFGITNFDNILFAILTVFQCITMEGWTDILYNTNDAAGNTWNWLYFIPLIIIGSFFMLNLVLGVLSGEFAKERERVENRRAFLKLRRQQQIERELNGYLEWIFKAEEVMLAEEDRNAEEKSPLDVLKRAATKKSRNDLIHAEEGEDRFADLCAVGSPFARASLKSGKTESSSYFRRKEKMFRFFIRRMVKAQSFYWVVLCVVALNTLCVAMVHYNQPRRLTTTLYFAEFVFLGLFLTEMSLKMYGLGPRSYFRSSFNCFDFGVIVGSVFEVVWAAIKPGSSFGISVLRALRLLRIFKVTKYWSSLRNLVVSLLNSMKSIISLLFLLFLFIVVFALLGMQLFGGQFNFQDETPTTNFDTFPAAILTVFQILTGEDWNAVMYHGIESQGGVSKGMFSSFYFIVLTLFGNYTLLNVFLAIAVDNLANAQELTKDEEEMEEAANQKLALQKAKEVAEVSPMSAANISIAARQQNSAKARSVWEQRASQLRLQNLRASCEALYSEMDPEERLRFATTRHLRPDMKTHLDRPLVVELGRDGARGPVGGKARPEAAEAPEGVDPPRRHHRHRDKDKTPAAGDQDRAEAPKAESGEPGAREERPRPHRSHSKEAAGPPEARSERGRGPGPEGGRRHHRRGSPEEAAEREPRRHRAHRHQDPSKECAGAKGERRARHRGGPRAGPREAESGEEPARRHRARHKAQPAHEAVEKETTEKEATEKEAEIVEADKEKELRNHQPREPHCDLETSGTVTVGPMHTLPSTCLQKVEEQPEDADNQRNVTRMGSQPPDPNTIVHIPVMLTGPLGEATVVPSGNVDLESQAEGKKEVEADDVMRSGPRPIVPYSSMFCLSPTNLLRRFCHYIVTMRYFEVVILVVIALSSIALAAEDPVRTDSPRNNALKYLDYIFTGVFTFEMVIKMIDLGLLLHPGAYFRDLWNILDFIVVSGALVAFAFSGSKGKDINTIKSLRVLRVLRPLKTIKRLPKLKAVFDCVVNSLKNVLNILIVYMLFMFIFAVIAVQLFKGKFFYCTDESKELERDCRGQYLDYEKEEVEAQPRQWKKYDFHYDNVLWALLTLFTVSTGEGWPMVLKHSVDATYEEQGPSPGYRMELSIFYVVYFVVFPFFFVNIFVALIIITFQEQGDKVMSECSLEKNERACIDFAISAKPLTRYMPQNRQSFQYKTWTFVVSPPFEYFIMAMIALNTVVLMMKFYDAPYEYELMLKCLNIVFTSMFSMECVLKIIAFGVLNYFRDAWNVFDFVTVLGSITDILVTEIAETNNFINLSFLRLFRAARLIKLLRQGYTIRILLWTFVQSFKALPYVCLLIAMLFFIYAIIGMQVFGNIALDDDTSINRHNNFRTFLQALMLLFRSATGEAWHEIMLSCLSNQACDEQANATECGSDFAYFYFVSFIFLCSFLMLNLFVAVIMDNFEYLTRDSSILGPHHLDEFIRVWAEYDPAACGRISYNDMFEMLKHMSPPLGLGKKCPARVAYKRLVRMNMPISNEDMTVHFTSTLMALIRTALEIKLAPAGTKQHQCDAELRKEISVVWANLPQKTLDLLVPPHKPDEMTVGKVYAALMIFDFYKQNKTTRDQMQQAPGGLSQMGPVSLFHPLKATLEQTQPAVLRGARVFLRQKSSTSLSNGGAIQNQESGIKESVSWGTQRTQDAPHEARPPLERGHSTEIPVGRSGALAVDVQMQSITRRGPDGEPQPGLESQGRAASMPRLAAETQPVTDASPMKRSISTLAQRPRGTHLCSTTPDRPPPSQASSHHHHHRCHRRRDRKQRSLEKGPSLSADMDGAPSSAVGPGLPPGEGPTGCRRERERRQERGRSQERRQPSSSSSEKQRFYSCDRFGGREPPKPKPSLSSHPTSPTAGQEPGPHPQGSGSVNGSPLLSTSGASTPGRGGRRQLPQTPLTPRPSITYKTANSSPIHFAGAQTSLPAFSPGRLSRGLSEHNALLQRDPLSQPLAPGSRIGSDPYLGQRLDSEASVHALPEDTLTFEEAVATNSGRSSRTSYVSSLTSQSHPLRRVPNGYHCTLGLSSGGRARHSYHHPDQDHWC
human Cav2.2, sequence (P54289 25-956 partner limits assumed): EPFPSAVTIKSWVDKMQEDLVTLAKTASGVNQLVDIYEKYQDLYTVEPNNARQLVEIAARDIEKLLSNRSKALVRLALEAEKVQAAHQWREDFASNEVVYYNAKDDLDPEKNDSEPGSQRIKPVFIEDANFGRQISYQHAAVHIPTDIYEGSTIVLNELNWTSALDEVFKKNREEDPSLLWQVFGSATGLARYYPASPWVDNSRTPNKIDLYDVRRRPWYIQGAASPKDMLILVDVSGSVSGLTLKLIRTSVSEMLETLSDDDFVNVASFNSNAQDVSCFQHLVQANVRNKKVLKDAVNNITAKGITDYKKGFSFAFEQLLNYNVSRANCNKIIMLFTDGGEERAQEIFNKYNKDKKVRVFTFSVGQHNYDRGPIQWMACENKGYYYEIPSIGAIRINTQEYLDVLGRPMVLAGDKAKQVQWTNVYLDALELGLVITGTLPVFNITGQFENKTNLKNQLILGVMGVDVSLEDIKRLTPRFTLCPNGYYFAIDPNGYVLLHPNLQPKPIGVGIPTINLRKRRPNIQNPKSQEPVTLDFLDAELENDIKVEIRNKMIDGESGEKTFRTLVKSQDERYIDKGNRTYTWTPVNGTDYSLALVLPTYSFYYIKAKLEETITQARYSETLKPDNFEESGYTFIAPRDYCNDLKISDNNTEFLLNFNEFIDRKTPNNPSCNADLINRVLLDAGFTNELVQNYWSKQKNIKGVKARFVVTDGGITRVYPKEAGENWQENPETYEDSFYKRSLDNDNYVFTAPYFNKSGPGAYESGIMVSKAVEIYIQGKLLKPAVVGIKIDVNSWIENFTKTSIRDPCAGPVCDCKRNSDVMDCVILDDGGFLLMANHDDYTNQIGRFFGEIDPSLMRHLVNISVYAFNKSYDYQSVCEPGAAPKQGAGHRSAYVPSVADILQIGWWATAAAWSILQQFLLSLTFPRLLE
human Cav2.2, sequence (P54289 957-1103 partner limits assumed): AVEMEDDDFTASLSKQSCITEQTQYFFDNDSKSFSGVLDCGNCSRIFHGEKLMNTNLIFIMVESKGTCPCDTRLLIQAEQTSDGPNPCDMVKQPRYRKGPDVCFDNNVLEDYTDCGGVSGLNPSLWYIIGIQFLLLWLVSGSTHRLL
human Cav2.2, sequence (P54284 whole entry partner): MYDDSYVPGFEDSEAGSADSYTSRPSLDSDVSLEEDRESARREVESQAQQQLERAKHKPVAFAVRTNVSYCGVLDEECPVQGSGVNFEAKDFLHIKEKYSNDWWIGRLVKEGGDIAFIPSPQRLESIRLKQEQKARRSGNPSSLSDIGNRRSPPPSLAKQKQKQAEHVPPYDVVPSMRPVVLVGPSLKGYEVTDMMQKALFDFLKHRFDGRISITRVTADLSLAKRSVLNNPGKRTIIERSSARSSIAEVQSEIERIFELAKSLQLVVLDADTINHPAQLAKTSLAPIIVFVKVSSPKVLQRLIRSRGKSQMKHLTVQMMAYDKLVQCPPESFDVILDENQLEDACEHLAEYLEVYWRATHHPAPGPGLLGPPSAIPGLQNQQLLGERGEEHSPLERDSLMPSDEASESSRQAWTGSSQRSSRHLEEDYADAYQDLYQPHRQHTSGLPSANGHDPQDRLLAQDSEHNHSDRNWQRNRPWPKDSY
Conditions: not given
In kind it is cell-based. In short, it runs like this:
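Human neuroblastoma IMR32 cells were seeded at 1−1.2×10^5 cells/well and cultured 48 h at 37 °C before FLIPR calcium influx measurement. Percent inhibition at each concentration was calculated against the no-inhibitor signal, and IC50 came from sigmoidal dose-response fits.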
With `O=C(Nc1ccc(F)cc1)N[C@H]1CC[C@@H]2CN(c3cccc(C(F)(F)F)n3)C[C@@H]21` [Example 709, 1-(4-fluorophenyl)-3-{(3aR,4S,6aS)-2-[6-(trifluoromethyl)pyridin-2-yl]octahydrocyclopenta[c]pyrrol-4-yl}urea], the IC50 (as a rule, the point on the concentration scale where inhibition reaches its midpoint) was 6.18 µM.
As for `CCC[C@H](N)C(=O)N[C@@H]1CC[C@H]2CN(S(=O)(=O)c3ccc(C(F)(F)F)cc3)C[C@H]21` [Example 423, N^1-((3aS,4R,6aR)-2-{[4-(trifluoromethyl)phenyl]sulfonyl}octahydrocyclopenta[c]pyrrol-4-yl)-L-norvalinamide], the IC50 turned out to be 6.46 µM.
Same read-out and setting: to `CCC[C@H](NC)C(=O)N[C@@H]1CC[C@@H]2CN(Cc3ccccc3)C[C@@H]21` [Example 363, N^1-[(3aR,4R,6aS)-2-benzyloctahydrocyclopenta[c]pyrrol-4-yl]-N^2-methyl-L-norvalinamide] belongs more than 30 µM.
Still for that read-out and setting: with `O=C(N[C@H]1CC[C@@H]2CN(c3cccc(C(F)(F)F)n3)C[C@@H]21)c1ccccc1O` [Example 562, 2-hydroxy-N-{(3aR,4S,6aS)-2-[6-(trifluoromethyl)pyridin-2-yl]octahydrocyclopenta[c]pyrrol-4-yl}benzamide] the figure was 1.69 µM; with `CN[C@H](C(=O)N[C@H]1CC[C@@H]2CN(c3ccc(C(F)(F)F)cc3)C[C@@H]21)[C@H](C)O` [Example 750, N^2-methyl-N-{(3aR,4S,6aS)-2-[4-(trifluoromethyl)phenyl]octahydrocyclopenta[c]pyrrol-4-yl}-L-allothreoninamide], more than 3 µM.
On the same count and under the same terms, with `CC(C)C(C(=O)N[C@H]1CC[C@@H]2CN(CCCCc3ccccc3)C[C@@H]21)c1ccccc1` (stereo partly drawn) [Example 113, 3-methyl-2-phenyl-N-[(3aR,4S,6aS)-2-(4-phenylbutyl)octahydrocyclopenta[c]pyrrol-4-yl]butanamide] the figure was 0.59 µM.

Still in this assay, the particulars now being: read-out: IC50 (μM) or percent inhibition (* indicates 3 minute incubation, otherwise 60 minute); IC50; 60 minute pre-incubation with compound; IMR32 cells, 80 mM KCl depolarization.
`O=C(CCCC(c1ccc(F)cc1)c1ccc(F)cc1)N[C@H]1CC[C@H]2CN(Cc3cccc(C(F)(F)F)c3)C[C@H]21` (relative stereo) [Example 132, 5,5-bis(4-fluorophenyl)-N-{(3aS*,4S*,6aR*)-2-[3-(trifluoromethyl)benzyl]octahydrocyclopenta[c]pyrrol-4-yl}pentanamide]: the IC50 was 1.13 µM.
With `O=C(N[C@@H]1CC[C@H]2CN(Cc3ccccc3)C[C@H]21)C(c1ccccc1)C1CCCC1` (stereo partly drawn) [Example 17, N-[(3aS,4R,6aR)-2-benzyloctahydrocyclopenta[c]pyrrol-4-yl]-2-cyclopentyl-2-phenylacetamide], the IC50 amounted to 1.57 µM.
Regarding `CC(C)[C@@H](CC(=O)N[C@H]1CC[C@@H]2CN(S(=O)(=O)c3cccc(C(F)(F)F)c3)C[C@@H]21)N(C)C` [Example 498, (3R)-3-(dimethylamino)-4-methyl-N-((3aR,4S,6aS)-2-{[3-(trifluoromethyl)phenyl]sulfonyl}octahydrocyclopenta[c]pyrrol-4-yl)pentanamide], the IC50 amounted to 1.59 µM.
Regarding `CC(C)C(C(=O)N[C@H]1CC[C@@H]2CN(Cc3ccc(F)cc3)C[C@@H]21)c1ccccc1` (stereo partly drawn) [Example 89, N-[(3aR,4S,6aS)-2-(4-fluorobenzyl)octahydrocyclopenta[c]pyrrol-4-yl]-3-methyl-2-phenylbutanamide], the IC50 was determined as 2.01 µM.
On to `O=S(=O)(c1cccc(C(F)(F)F)c1)N(C1CC1)[C@H]1CC[C@H]2CN(CCCCCC(c3ccc(F)cc3)c3ccc(F)cc3)C[C@H]21` (relative stereo) [Example 202, N-{(3aS*,4S*,6aR*)-2-[6,6-bis(4-fluorophenyl)hexyl]octahydrocyclopenta[c]pyrrol-4-yl}-N-cyclopropyl-3-(trifluoromethyl)benzenesulfonamide], for which the IC50 amounted to 0.83 µM.
As for `CCC[C@H](NC)C(=O)N[C@H]1CC[C@@H]2CN(S(=O)(=O)c3cc(C(F)(F)F)cc(C(F)(F)F)c3)C[C@@H]21` [Example 538, N^1-((3aR,4S,6aS)-2-{[3,5-bis(trifluoromethyl)phenyl]sulfonyl}octahydrocyclopenta[c]pyrrol-4-yl)-N^2-methyl-L-norvalinamide], the IC50 was found to be 3.75 µM.
